A short description of series [1]: Solubility Test (shake flask at 37° C., HPLC). The series is classed as physicochemical. Conditions: for solubility in The First Fluid: first fluid of disintegration test of Japanese Pharmacopoeia; for solubility in The First Fluid / solubility in water: shaken 125 strokes per minute, constant or maximum concentration over 0.5-20 hours. On the procedure: Each crystal polymorph (0.4 g), which was prepared by the above method, was taken in 50 mL Erlenmeyer flask respectively, and to the mixture was added 20 mL of the mediums as defined below. The flask was shaken at 125 strokes per minute at 37° C. After 0.5, 1, 2 and 20 hours from the start of shaking, 1.5 mL of the suspension was filtered through a membrane filter (pore size: 0.2 μm). The concentration of the filtrate for each crystal polymorph was determined by HPLC method to determine the solubility. The concentration where the concentration became constant by the temporal measurements of the concentration was determined to be the solubility of each polymorph, and the results are shown in Table 1. […] In the cases of crystalline form F and amorphous form, since these samples were dissolved completely in each medium within 0.5 hours after the start of the test, additional samples were added appropriately to the test flasks at the point of 0.5 hours after the start and the solubility tests were continued. The mediums: water or the first fluid of disintegration test of Japanese Pharmacopoeia (hereinafter referred to as The First Fluid).

A short description of series [2]: Chemical Stability Test (storage at 60° C. for 1 week, HPLC and appearance). The format is physicochemical. On the procedure: Crystalline form F obtained in Example 1 was stored at 60° C. for 1 week to investigate the chemical stability. As the chemical stability, the residual percentage of ethyl (−)-2-[4-[2-[[(1S,2R)-2-hydroxy-2-(4-hydroxyphenyl)-1-methylethyl]amino]ethyl]-2,5-dimethylphenoxy]-acetate was determined by HPLC, and the change in appearance was also observed.

This note sets out measurements from US8003694B2, “Crystal of hydroxynorephedrin derivative hydrochloride ¼ hydrate” (Kissei Pharmaceutical Co., Ltd., priority 2005, dated 2011).

As to `CCOC(=O)COc1cc(C)c(CCN[C@@H](C)[C@H](O)c2ccc(O)cc2)cc1C.Cl` [crystal form F, ethyl (−)-2-[4-[2-[[(1S,2R)-2-hydroxy-2-(4-hydroxyphenyl)-1-methylethyl]amino]ethyl]-2,5-dimethylphenoxy]acetate hydrochloride ¼ hydrate], the “solubility in The First Fluid relative to crystalline forms A and B and amorphous form” value in series [1] (The First Fluid) is reported as “about 5 times”. For the same compound, in series [1] (hydrate), the “solubility in The First Fluid” value amounted to 11.8 mg/mL and the solubility in water is 24.3 mg/mL. Besides, in series [2] (after 1 week at 60° C.), the appearance result is on record as “white” and the “residual percentage (chemical purity %)” value is given as 98.1%. In series [2] (at start), the appearance result was “white” and the “residual percentage (chemical purity %)” value came to 98.1%. For the same compound, the “changes in chemical purity and appearance” value in series [2] (stored at 60° C. for 1 week) was “no changes”.

With `CCOC(=O)COc1cc(C)c(CCN[C@@H](C)[C@H](O)c2ccc(O)cc2)cc1C.Cl` [crystal form B, ethyl (−)-2-[4-[2-[[(1S,2R)-2-hydroxy-2-(4-hydroxyphenyl)-1-methylethyl]amino]-ethyl]-2,5-dimethylphenoxy]acetate hydrochloride], in series [1] (hydrochloride), the “solubility in The First Fluid” value came out at 2.9 mg/mL and the solubility in water is listed as 12.5 mg/mL.

Regarding `CCOC(=O)COc1cc(C)c(CCN[C@@H](C)[C@H](O)c2ccc(O)cc2)cc1C.Cl` [amorphous form, ethyl (−)-2-[4-[2-[[(1S,2R)-2-hydroxy-2-(4-hydroxyphenyl)-1-methylethyl]amino]ethyl]-2,5-dimethylphenoxy]acetate hydrochloride], in series [1] (hydrochloride), the “solubility in The First Fluid” value amounted to 2.6 mg/mL and the solubility in water turned out to be 17.8 mg/mL.

Consider `CCOC(=O)COc1cc(C)c(CCN[C@@H](C)[C@H](O)c2ccc(O)cc2)cc1C.Cl` [crystal form A, ethyl (−)-2-[4-[2-[[(1S,2R)-2-hydroxy-2-(4-hydroxyphenyl)-1-methylethyl]amino]-ethyl]-2,5-dimethylphenoxy]acetate hydrochloride], for which, in series [1] (hydrochloride), the “solubility in The First Fluid” value is listed as 2.4 mg/mL and the solubility in water was 10.7 mg/mL.
